Marks after values point to notes of the source that are not given here.
Key:
[1] = system: L. infantum promastigotes; test: apoptosis/necrosis profiling, annexin V/PI staining, promastigotes; type: cell-based, Leishmania infantum
Method: (§1) To evaluate both apoptosis and necrosis, promastigote forms of L. infantum in the log phase of growth were incubated at several concentrations based on the IC50 values of LQOFG-2 (6.35; 12.7, 25.4, and 50.8 µM) LQOFG-6 (12.2, 24.4, 48.8 and 97.6 µM), and LQOFG-7 (11.65, 23.3, 46.6 and 93.2 µM), and AmB (1.5 and 6 µM) was used as the positive control. The plates were incubated for 24 h at 26 °C ± 1 °C in a B.O.D. incubator. After incubation, the promastigotes were washed three times in cold PBS, resuspended in binding buffer (10-mM HEPES, 140-mM NaCl, and 2.5-mM CaCl2, pH 7.4), and stained using a FITC Annexin V/Dead Cell Apoptosis Kit (BD Biosciences, San Jose, CA, USA) according to the manufacturer’s instructions. The stained cells were diluted and suspended in an Annexin V binding buffer (BD Biosciences, San Jose, CA, USA). Annexin V-FITC/propidium iodide (PI)-stained cells were analyzed using a BD FACSCanto II flow cytometer (BD Biosciences, San Jose, CA, USA). The raw data were analyzed using FlowJo 10.0.7 software (TreeStar Inc., Ashland, OR, USA).

[2] = in vitro cytotoxicity in PBMC (MTT); type: cell-based, human; details: both sexes, human, peripheral blood mononuclear cells (PBMCs), human PBMC, 24 h, MTT
Method: In vitro cytotoxicity was evaluated using peripheral blood mononuclear cells (PBMCs) collected from three healthy volunteers (2 males, mean age 33; and 1 person). PBMCs were separated by density gradient using Ficoll Paque PLUS (GE Healthcare, USA), pelleted by centrifugation (400× g for 40 min), and resuspended in RPMI 1640 medium, then supplemented with 10% fetal bovine serum and 1% antibiotic solution (penicillin 5000 Units/mL + streptomycin 5000 μg/mL). After 24 h of treatment, cell viability was evaluated by the modified colorimetric method based on the tetrazolium dye MTT (3-(4,5-dimethylthiazol-2-yl)-2,5- diphenyltetrazolium bromide). The MTT assay was used for in vitro cytotoxicity as previously described with the following modifications: cells were exposed to serially diluted concentrations of LQOFG-2, LQOFG-6, LQOFG-7 (1000 to 7.8 µM), and AmB (100 to 0.78 µM). The plates were kept at 37 °C for 24 h. MTT (5 mg/mL) was added and incubated for 4 h at 37 °C, after which the plates were centrifuged, the supernatant was discarded, and DMSO was added, leaving the plates under stirring to solubilize the formazan salts. Absorbance was measured at 540 nm using a plate reader (ELx800; Curitiba, PR, Brazil). The mean percentage of viable cells was calculated relative to the untreated control.

[3] = system: L. infantum axenic amastigotes; test: apoptosis/necrosis profiling, annexin V/PI staining, axenic amastigotes; type: cell-based, Leishmania infantum
Method: as §1
To evaluate both apoptosis and necrosis of the amastigote-like forms of L. infantum, the protocol was followed. In each well, amastigotes were treated with the guanidine compounds and controls.

[4] = system: L. infantum promastigotes; test: promastigote growth inhibition assay (MTT); type: cell-based; details: Leishmania infantum, 72 h, 26 °C
Method: The promastigote forms of Leishmania (Leishmania) infantum [IOC/L0579(MHOM/BR/1974/PP75)] were cultured in Schneider’s medium, pH 7.0, supplemented with 20% heat-inactivated fetal bovine serum (FBS), 2% male human urine, 100 U/mL of penicillin, and 100 mg/L of streptomycin, and the parasites were maintained at 26 °C. The procedure to obtain the extracellular axenic amastigote form of L. infantum was based on methods previously described that were modified using a Schneider medium readjusted to pH 5.5 at 37 °C. The culture of promastigote forms in the stationary phase was centrifuged, and the medium of these cells was replaced and differentiated into axenic amastigotes by temperature and medium pH changes. Parasites were maintained in culture for no more than 20 passages.
The promastigote growth inhibition assay was performed as previously described. Promastigotes were harvested during the exponential growth phase. They were incubated in the presence and absence of several concentrations of LQOFG-2, LQOFG-6, LQOFG-7 (500 to 7.8 µM), and AmB (10 to 0.078 µM) as the positive control. The plate was incubated at 26 °C for 72 h in a biological oxygen demand (B.O.D.) incubator using a Schneider’s medium (Schneider’s Insect Medium 24.5 g/L; L-glutamine 1.8 g/L; glucose 2 g/L and sodium bicarbonate 0.4 g/L; Sigma-Aldrich—St. Louis—USA) supplemented. The growth inhibition was evaluated using an MTT assay kit (Amresco, Solon, OH, USA) according to the manufacturer’s protocol. After 4 h of incubation, 10% sodium dodecyl sulfate was added to dissolve the formazan crystals. The absorbance (540 nm) was measured using a plate reader (Biosystems model ELx800; Curitiba, PR, Brazil). […] Three independent experiments we performed in triplicate.

[5] = system: L. infantum axenic amastigotes; test: axenic amastigote inhibition assay (MTT); type: cell-based; details: Leishmania infantum, 24 h; for EC50: 37 °C, pH 5.5, MTT
human red blood cells = test: red blood cell lysis assay; type: cell-based; details: 1 h, 37 °C
Method: The hemolytic activities of guanidine compounds were measured using human red blood cells from healthy adults (n = 3) according to methods previously described. Briefly, 80 µL of a 5% erythrocyte/phosphate-buffered saline (PBS) suspension was mixed with 20 µL of LQOFG-2, LQOFG-6, LQOFG-7, (1000 to 7.8 µM), and AmB (100 to 0.78 µM). After incubation at 37 °C for 1 h, 200 µL of PBS (1.5 mM KH2PO4, 8.1 mM Na2HPO4, 136.9 mM NaCl, and 2.6 mM KCl, pH 7.2) was added to stop the hemolysis process, and the samples were centrifuged for 10 min at 1000× g. The supernatants were collected, and the extent of hemolysis was measured spectrophotometrically at 540 nm. The hemolysis percentage was determined as [(Abssam − Abscon)/(Abstot − Abscon) × 100], where Abssam is the absorbance of the sample, Abscon is the absorbance of the blank control (without drugs), and Abstot is the absorbance of total hemolysis (replacing the sample solution with an equal volume of ultrapure water (Direct-Q UV®, Guyancourt, France)).

Row | SMILES | % cells, Early Apoptosis (AV+, PI−) ([1]; 1× IC50, 24 h) [%] | % cells, Late Apoptosis (AV+, PI+) ([1]; 1× IC50, 24 h) [%] | % cells, Necrosis (AV−, PI+) ([1]; 1× IC50, 24 h) [%] | % cells, Early Apoptosis (AV+, PI−) ([1]; 4× IC50, 24 h) [%] | % cells, Late Apoptosis (AV+, PI+) ([1]; 4× IC50, 24 h) [%] | CC50 at 24 h [2] [µM] | % cells, Early Apoptosis (AV+, PI−) ([3]; 1 × EC50, 24 h) | % cells, Late Apoptosis (AV+, PI+) ([3]; 1 × EC50, 24 h) | % cells, Necrosis (AV−, PI+) ([3]; 1 × EC50, 24 h) [%] | % cells, Early Apoptosis (AV+, PI−) ([3]; 4 × EC50, 24 h) | % cells, Late Apoptosis (AV+, PI+) ([3]; 4 × EC50, 24 h) | % cells, Necrosis (AV−, PI+) ([3]; 4 × EC50, 24 h) | IC50 [4] [µM] | EC50 [5] [µM] | HC50, toxicity to red blood cells (human red blood cells) [µM] | other results
1 | O=C(/N=C(/NCc1ccccc1)Nc1ccc(I)cc1)c1ccccc1 [LQOFG-7, (Z)-N-((benzylamine)((4-iodophenyl)amino)methylene)benzamide] | 0.77 ± 0.04 | 0.41 ± 0.08 | 1.19 ± 0.12 | 0.39 ± 0.08 | 0.18 ± 0.07 | 745.5 ± 3.58 | 5.84 ± 0.57 ^b % | 44.20 ± 1.01 ^d % | 13.53 ± 0.32 | 8.01 ± 0.14 ^d % | 63.27 ± 0.59 ^d % | 12.27 ± 0.48% | 23.6 ± 0.64 | 18.6 ± 1.23 | >1000 | % cells, Early Apoptosis (AV+, PI−) ([1]; 0.5× IC50, 24 h): 0.28 ± 0.05%; % cells, Late Apoptosis (AV+, PI+) ([1]; 0.5× IC50, 24 h): 0.47 ± 0.07%; % cells, Necrosis (AV−, PI+) ([1]; 0.5× IC50, 24 h): 0.87 ± 0.17%; % cells, Early Apoptosis (AV+, PI−) ([1]; 2× IC50, 24 h): 0.76 ± 0.10%; % cells, Late Apoptosis (AV+, PI+) ([1]; 2× IC50, 24 h): 0.26 ± 0.09%; % cells, Early Apoptosis (AV+, PI−) ([3]; 0.5 × EC50, 24 h): 5.56 ± 0.46 ^a %; % cells, Late Apoptosis (AV+, PI+) ([3]; 0.5 × EC50, 24 h): 35.53 ± 3.13 ^c %; % cells, Necrosis (AV−, PI+) ([3]; 0.5 × EC50, 24 h): 9.83 ± 1.27%; % cells, Early Apoptosis (AV+, PI−) ([3]; 2 × EC50, 24 h): 10.02 ± 1.53 ^d %; % cells, Late Apoptosis (AV+, PI+) ([3]; 2 × EC50, 24 h): 36.70 ± 10.35 ^d %; % cells, Necrosis (AV−, PI+) ([3]; 2 × EC50, 24 h): 5.63 ± 1.24%; inhibition at 31.2 µM ([5]; at 31.2 µM, read-out: inhibition of axenic amastigotes compared to the control (untreated)): 58%
2 | C[C@@H]1[C@H](O)[C@@H](C)/C=C/C=C/C=C/C=C/C=C/C=C/C=C/[C@H](O[C@@H]2O[C@H](C)[C@@H](O)[C@H](N)[C@@H]2O)C[C@@H]2O[C@](O)(C[C@@H](O)C[C@@H](O)[C@H](O)CC[C@@H](O)C[C@@H](O)CC(=O)O[C@H]1C)C[C@H](O)[C@H]2C(=O)O [Amphotericin B, reference compound] | 0.67 ± 0.27 | 4.30 ± 0.28 | 7.64 ± 1.17 | 0.27 ± 0.09 | 65.83 ± 1.85 | 53.9 ± 3.59 | 4.73 ± 0.97% | 57.50 ± 1.72 ^d % | 11.52 ± 1.89 | 0.60 ± 0.42% | 97.87 ± 1.01 ^d % | 0.96 ± 0.33 ^d % | 1.5 ± 0.23 | 0.3 | 7.10 ± 2.09 | % cells, Necrosis (AV−, PI+) ([1]; 4× IC50, 24 h): 33.10 ± 1.90%; % cells, Late Apoptosis (AV+, PI+) ([3]; 1 × EC50, 24 h, listed as AmB): 57.50 ± 1.72%; % cells, Late Apoptosis (AV+, PI+) ([3]; 4 × EC50, 24 h, listed as AmB): 97.87 ± 1.01%

— PMC10051705, “Leishmanicidal Activity of Guanidine Derivatives against Leishmania infantum” (Tropical Medicine and Infectious Disease, 2023)
